Results from patent US6339149B1, “Isolated nucleic acid molecules which encode tumor rejection antigens found in dage” (Ludwig Institute for Cancer Research, priority 1994, dated 2002).
pEC50: −log10 of the molar value.

System: C1R-A24 cells
Test: 51Cr release assay: peptide sensitization of C1R-A24 cells to lysis by anti LB33-E CTLs
Type: cell-based, human
Settings: 51Cr labeled C1R-A24 cells incubated 30 minutes with peptide, E/T ratio 10:1, chromium release after 4 hours
Description: The lysis assay employed was a chromium release assay following Herin et al., Int. J. Cancer 39:390-396 (1987), the disclosure of which is incorporated by reference. The assay, however, is described herein. The target melanoma cells were grown in vitro. Prior to labelling, these cells were incubated for 48 hours, in the presence of 50 U/ml of IFN-γ to increase the expression of HLA Class I molecules. The cells were then resuspended at 10^7 cells/ml in DMEM, supplemented with 10 mM HEPES and 30% FCS (i.e. fetal calf serum), and incubated for 45 minutes at 37° C. with 200 μCi/ml of Na(^51Cr)O4. Labelled cells were washed three times with DMEM, supplemented with 10 mM Hepes. These were then resuspended in DMEM supplemented with 10 mM Hepes and 10% FCS, after which 100 ul aliquots containing 10^3 cells, were distributed into 96 well microplates. PBL containing samples were added in 100 ul of the same medium, and assays were carried out in duplicate. Plates were centrifuged for 4 minutes at 100 g, and incubated for four hours at 37° C. in a 5.5% CO2 atmosphere.
Plates were centrifuged again, and 100 ul aliquots of supernatant were collected and counted. Percentage of ^51Cr release was calculated as follows: [formula]
where ER is observed, experimental ^51Cr release, SR is spontaneous release measured by incubating 10^3 labeled cells in 200 ul of medium alone, and MR is maximum release, obtained by adding 100 ul 0.3% Triton X-100® to target cells.
Four sequences in this region which (i) were 9 or 10 amino acids long, (ii) had Tyr or Phe at position 2, and (iii) had one of Phe, Leu, Ile, or Trp at C-terminus were possible. This is the motif for HLA-A24 binding described by Kubo, et al, J. Immunol 152:3913 (1994); Meier, et al, Immunogenetics 40:306-308 (1994). These were synthesized, and incubated with cells of MHC class I negative B-cell lympoblastoid line C1R, which had been transfected with the HLA-A24 cDNA clone described supra. One peptide:
Comparative experiments were carried out, wherein peptides containing one additional N- or C-terminal amino acid, and where the C-terminal Leu was deleted, were used. […] Peptides used extended SEQ ID NO:5 at the N-terminues with Ala (SEQ ID NO:6), and by deleting the C-terminal Leu (SEQ ID NO:7). […] In these experiments, ^51Cr labeled C1R-A24 cells were incubated for 30 minutes in the presence of indicated peptide concentrations CTLs were added at E/T ratios of 10:1, and chromium release was measured after 4 hours.

| Substance | sensitization of C1R-A24 cells to lysis, compared with SEQ ID NO:5 | pEC50 (read-out: half maximal effect in sensitizing transfected C1R-A24 cells to lysis by anti LB33-E CTLs) |
| --- | --- | --- |
| SEQ ID NO:7: Peptide of SEQ ID NO:5 with the C-terminal Leu deleted (LYVDSLFF) | much less sensitive in sensitizing the cells |  |
| LYVDSLFFL [SEQ ID NO. 5, Leu Tyr Val Asp Ser Leu Phe Phe Leu] |  | 6.30 |
| SEQ ID NO:8: Peptide of SEQ ID NO:5 with Arg added to the C terminus (LYVDSLFFLR) | much less sensitive in sensitizing the cells |  |
| SEQ ID NO:6: Peptide that extends SEQ ID NO:5 at the N-terminus with Ala (ALYVDSLFFL) | sensitized the cells to lysis, although to a lesser degree than SEQ ID NO:5 |  |
